According to patent US12256736B2, “Pyridazine compound and herbicide” (Nippon Soda Co., Ltd., priority 2019, dated 2025):

Key:
Assay type in all cases: in vivo
[1] = test system: Setaria faberi; experiment: Test Example 3: spraying onto shoots, herbicidal index; conditions: sprayed onto shoots, three weeks after the treatment
Procedure: (§1) An emulsifiable concentrate for test was prepared in the same manner as that described in Test Example 1.
(§2) Seeds of each of Zea mays for feed, Alopecurus myosuroides, Lolium multiflorum, Avena sativa, Digitaria ciliaris, Setaria faberi, Abutilon theophrasti, and Amaranthus retroflexus were placed in a surface layer of soil filled in a pot with a size of 150 cm^2 and then lightly covered with soil. Subsequently, the pots were kept in a greenhouse to allow the plants to grow. When each of Alopecurus myosuroides, Lolium multiflorum, Avena sativa, Digitaria ciliaris, Setaria faberi, Abutilon theophrasti, and Amaranthus retroflexus grew to a shoot height ranging from 2 to 4 cm, and Zea mays for feed grew to a shoot height ranging from 20 to 30 cm, the emulsifiable concentrate mentioned above was diluted with water so as to have a specified amount of the active ingredient, and then sprayed onto the shoot parts by means of a small-sized sprayer at an application rate of 250 L of water per hectare.
(§3) Three weeks after the treatment, the weight of the shoot part of the alive plant in the untreated plot and the treated plot with respect to each plant was measured. The herbicidal index was calculated according to the calculation expression described below.
(§4) (4) Calculation Expression for Herbicidal Index Herbicidal index (%)=[(Weight of the shoot part of the alive plant in the untreated plot−Weight of the shoot part of the alive plant in the treated plot)/(Weight of the shoot part of the alive plant in the untreated plot)]×100
(§5) A diluted emulsifiable concentrate of the compound of A-2 was sprayed at a dosage of 250 g or 63 g of the compound per hectare.
(§6) In addition, with respect to the compound (A) described in Patent Document 1, the same application as described above was carried out.

[2] = test system: Lolium multiflorum; experiment: as above; conditions: sprayed onto shoots, three weeks after the treatment
Procedure: as §1, §2, §3, §4, §5, §6

[3] = test system: Avena sativa; experiment: as above; conditions: sprayed onto shoots, three weeks after the treatment
Procedure: as §1, §2, §3, §4, §5, §6

[4] = test system: Abutilon theophrasti; experiment: as above; conditions: sprayed onto shoots, three weeks after the treatment
Procedure: as §1, §2, §3, §4, §5, §6

[5] = test system: Alopecurus myosuroides; experiment: as above; conditions: sprayed onto shoots, three weeks after the treatment
Procedure: as §1, §2, §3, §4, §5, §6

[6] = test system: Digitaria ciliaris; experiment: as above; conditions: sprayed onto shoots, three weeks after the treatment
Procedure: as §1, §2, §3, §4, §5, §6

[7] = test system: Amaranthus retroflexus; experiment: as above; conditions: sprayed onto shoots, three weeks after the treatment
Procedure: as §1, §2, §3, §4, §5, §6

[8] = test system: Zea mays for feed; experiment: Test Example 3: spraying onto shoots, herbicidal index (crop); conditions: sprayed onto shoots (crop, shoot height 20 to 30 cm), three weeks after the treatment
Procedure: as §1, §2, §3, §4, §5, §6

[9] = test system: Lolium multiflorum; experiment: Test Example 2: tests of treating shoots, herbicidal index; conditions: 63 g/ha, sprayed onto shoots, four weeks after the treatment
Procedure: as §1
(§7) Seeds of each of Lolium multiflorum, Digitaria ciliaris, and Zea mays for feed were placed in a surface layer of soil filled in a pot with a size of 150 cm^2 and then lightly covered with soil. Subsequently, the pots were kept in a greenhouse to allow the plants to grow. When each of Lolium multiflorum and Digitaria ciliaris grew to a shoot height ranging from 2 to 4 cm, and Zea mays for feed grew to a shoot height ranging from 20 to 30 cm, the emulsifiable concentrate mentioned above was diluted with water so as to have a specified amount of the active ingredient, and then sprayed onto the shoot parts by means of a small-sized sprayer at an application rate of 250 L of water per hectare.
as §3, with “Four weeks” for “Three weeks”, “each of Lolium multiflorum, Digitaria ciliaris, and Zea mays for feed” for “each plant”
as §4
(§8) A diluted emulsifiable concentrate of the compound of A-2 was sprayed at a dosage of 63 g of the compound per hectare.
as §6

[10] = test system: Digitaria ciliaris; experiment: as above; conditions: 63 g/ha, sprayed onto shoots, four weeks after the treatment
Procedure: as §1, §7
as §3, with “Four weeks” for “Three weeks”, “each of Lolium multiflorum, Digitaria ciliaris, and Zea mays for feed” for “each plant”
as §4, §8, §6

[11] = test system: Zea mays for feed; experiment: Test Example 2: tests of treating shoots, herbicidal index (crop); conditions: 63 g/ha, sprayed onto shoots (crop, shoot height 20 to 30 cm), four weeks after the treatment
Procedure: as §1, §7
as §3, with “Four weeks” for “Three weeks”, “each of Lolium multiflorum, Digitaria ciliaris, and Zea mays for feed” for “each plant”
(4) Calculation Expression for Herbicidal Index Herbicidal index (%)=[(Weight of the shoot part of the alive plant in the untreated plot−Weight of the shoot part of the alive plant in the treated plot)/(Weight of the shoot part of the alive plant in the untreated plot)]×100 […]

Cn1ncc(-c2ccc(C(F)(F)F)c3c2CCCS3(=O)=O)c(O)c1=O [Compound A-2, 5-(1,1-dioxido-8-(trifluoromethyl)thiochroman-5-yl)-4-hydroxy-2-methylpyridazin-3(2H)-one]
Herbicidal index Setaria faberi ([1]; 63 g ai/ha): 100%
Herbicidal index Setaria faberi ([1]; 250 g ai/ha): 100%
Herbicidal index Lolium multiflorum ([2]; 63 g ai/ha): 100%
Herbicidal index Lolium multiflorum ([2]; 250 g ai/ha): 100%
Herbicidal index Avena sativa ([3]; 63 g ai/ha): 100%
Herbicidal index Avena sativa ([3]; 250 g ai/ha): 100%
Herbicidal index Abutilon theophrasti ([4]; 63 g ai/ha): 100%
Herbicidal index Abutilon theophrasti ([4]; 250 g ai/ha): 100%
Herbicidal index Alopecurus myosuroides ([5]; 63 g ai/ha): 80%
Herbicidal index Alopecurus myosuroides ([5]; 250 g ai/ha): 100%
Herbicidal index Digitaria ciliaris ([6]; 63 g ai/ha): 90%
Herbicidal index Digitaria ciliaris ([6]; 250 g ai/ha): 100%
Herbicidal index Amaranthus retroflexus ([7]; 63 g ai/ha): 100%
Herbicidal index Amaranthus retroflexus ([7]; 250 g ai/ha): 100%
Herbicidal index Zea mays for feed ([8]; 63 g ai/ha): 0%
Herbicidal index Zea mays for feed ([8]; 250 g ai/ha): 20%
Herbicidal index Lolium multiflorum [9]: 100%
Herbicidal index Digitaria ciliaris [10]: 90%
Herbicidal index Zea mays for feed [11]: 0%

Cn1ncc(-c2ccc(C(F)(F)F)cc2S(C)(=O)=O)c(O)c1=O [(A)]
Herbicidal index Setaria faberi ([1]; 63 g ai/ha): 80%
Herbicidal index Setaria faberi ([1]; 250 g ai/ha): 100%
Herbicidal index Lolium multiflorum ([2]; 63 g ai/ha): 40%
Herbicidal index Lolium multiflorum ([2]; 250 g ai/ha): 50%
Herbicidal index Avena sativa ([3]; 63 g ai/ha): 60%
Herbicidal index Avena sativa ([3]; 250 g ai/ha): 80%
Herbicidal index Abutilon theophrasti ([4]; 63 g ai/ha): 80%
Herbicidal index Abutilon theophrasti ([4]; 250 g ai/ha): 90%
Herbicidal index Alopecurus myosuroides ([5]; 63 g ai/ha): 50%
Herbicidal index Alopecurus myosuroides ([5]; 250 g ai/ha): 90%
Herbicidal index Digitaria ciliaris ([6]; 63 g ai/ha): 80%
Herbicidal index Digitaria ciliaris ([6]; 250 g ai/ha): 90%
Herbicidal index Amaranthus retroflexus ([7]; 63 g ai/ha): 100%
Herbicidal index Amaranthus retroflexus ([7]; 250 g ai/ha): 100%
Herbicidal index Zea mays for feed ([8]; 63 g ai/ha): 40%
Herbicidal index Zea mays for feed ([8]; 250 g ai/ha): 90%
Herbicidal index Lolium multiflorum [9]: 40%
Herbicidal index Digitaria ciliaris [10]: 80%
Herbicidal index Zea mays for feed [11]: 50%
